Assays:
[1] = Inhibitory activity against serine/threonine protein phosphatase 2 (PP2A)
[2] = molecular target: Serine/threonine-protein phosphatase PP1-gamma catalytic subunit (Homo sapiens, UniProt P36873); assay: Inhibitory activity against serine/threonine protein phosphatase 1(PP1)
Chain of Serine/threonine-protein phosphatase PP1-gamma catalytic subunit (P36873 whole entry): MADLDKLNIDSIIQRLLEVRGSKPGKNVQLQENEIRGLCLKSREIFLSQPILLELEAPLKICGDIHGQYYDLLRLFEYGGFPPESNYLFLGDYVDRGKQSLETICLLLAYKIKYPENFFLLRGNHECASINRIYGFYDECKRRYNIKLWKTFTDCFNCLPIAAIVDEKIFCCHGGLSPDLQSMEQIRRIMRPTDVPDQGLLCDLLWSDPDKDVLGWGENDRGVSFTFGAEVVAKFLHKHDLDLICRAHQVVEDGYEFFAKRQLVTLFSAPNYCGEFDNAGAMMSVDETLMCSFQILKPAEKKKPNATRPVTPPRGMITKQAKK

## C=C1[C@@H](O)[C@@H]2O[C@]3(CC[C@H](/C=C/[C@@H](C)[C@@H]4CC(C)=C[C@@]5(O[C@H](C[C@@](C)(O)C(=O)O)CC[C@H]5O)O4)O3)CC[C@H]2O[C@@H]1[C@@H](O)C[C@H](C)[C@H]1O[C@@]2(CCCCO2)CC[C@H]1C [OKADAIC ACID]
[1]
  IC50: 0.2 nM
[2]
  IC50: 20 nM

Source: ChEMBL document CHEMBL1148466, “Self-association of okadaic acid upon complexation with potassium ion” (J Med Chem, 2004)
